{
  "source": "patent US7550449B2",
  "about": "“Carba cyclic phosphatidic acid derivative” (priority 2002, dated 2009)",
  "origin": "cited, not measured here",
  "key": {"Rho": {"system": "Rho", "conditions": "literature (Mukai et al. 2000)"}, "[1]": {"system": "MM1 cells, highly invasive clones of a rat ascites hepatoma cell line (AH-130)", "conditions": "literature (Mukai et al. 1999)"}, "[2]": {"system": "human fibrosarcoma cells (HT-1080)", "conditions": "cells require neither serum nor LPA for invasion; literature"}, "MM1 cells": {"system": "MM1 cells", "conditions": "within several minutes of addition, effect not lost with LPA, literature"}},
  "data": [
    {"smiles": "CCCCCCCCCCCCCCCC(=O)OCC1COP(=O)(O)O1", "note": "(stereo not shown) [Pal-cPA]", "values": [
      {"measurement": "LPA-mediated Rho activation", "setting": "Rho", "value": "inhibited"},
      {"measurement": "invasion suppressing activity among cPA derivatives with different fatty acids at sn-1", "setting": "[1]", "value": "strongest invasion suppressing activity"},
      {"measurement": "suppression of invasion of HT-1080 cells", "setting": "[2]", "value": "significantly suppressed"},
      {"measurement": "intracellular cAMP concentration", "setting": "MM1 cells", "value": "elevated"}
    ]}
  ]
}
